# Experimental data taken from US12311136B2, “Using alternating electric fields to increase permeability of the blood brain barrier” (Novocure GmbH, priority 2020, dated 2025).
# What was measured:
# Type in all cases: in vivo
# [1] = tested on: rat brain (BBB); assay: Evans Blue (EB) accumulation in rat brain after alternating electric fields
# From the text: A set of in vivo experiments on rats was also run to quantify the increase in vessel permeability caused by exposure to the alternating electric fields. These experiments used Evans Blue (EB) dye, which is an azo dye that has a very high affinity for serum albumin (molecule size ˜69 kDa). Because of its large molecule size, serum albumin will ordinarily not be able to get past the BBB.
# This was accomplished by shaving each rat's head, positioning a first pair of capacitively coupled electrodes on the top and bottom of the rat's head, and positioning a second pair of capacitively coupled electrodes on the left and right sides of the rat's head. A 100 kHz AC voltage was then applied between the top and bottom electrodes for 1 second, followed by a 100 kHz AC voltage applied between the right and left electrodes for 1 second, in a repeating sequence.
# Under the conditions indicated in Table 1 and for the times indicated on Table 1, EB was injected intravenously into the tail vein under anesthesia (Once injected, EB immediately binds to Albumin), and the EB was allowed to circulate for 2 hours in all cases. The following steps were then performed: (a) intracardiac perfusion with saline; (b) brains are sliced in four pieces with a brain slicer; (c) pieces were photographed to localize staining and weighted; (d) EB extraction after tissue homogenization with TCA 50% (1:3) and centrifuge and (e) EB quantification at 610 nm. Results are given as μg EB per g tissue.
# During the experiment, two animals from group 2 and one animal from group 4 were excluded (disrupted treatment, failure to inject EB into the tail vein). There were no differences between the animals treated with alternating electric fields (groups 1 and 2) and therefore these animals were grouped together. Similarly, there were no differences between sham heat and control animals (groups 3 and 4) and therefore these animals were grouped together.
# EB accumulation in these four specific sections was then measured. In addition, a computer simulation was performed to determine the field strength in each of these four sections. […]
# [2] = tested on: rat brain (BBB); assay: DCE-MRI of Gadolinium contrast agent accumulation in rat brain; conditions: for contrast agent accumulation in the brain tissue, injection 96 h after the fields were turned off: 72 hours fields followed by 96 hours without fields vs control+96 h
# Procedure: Yet another set of in vivo experiments was performed using Dynamic Contrast Enhanced MRI (DCE-MRI) with intravenous injection of Gadolinium contrast agent (Gd-DTPA, Magnetol, MW 547). In these experiments, test rats were treated with 100 kHz alternating electric fields for 72 h, and control rats were not treated with alternating electric fields for the same period of time. After this 72 h period, the alternating electric field was turned off, the rats were anesthetized, and a series of 60 T1w MRI scans (each of the scans having a duration of 28 seconds) was acquired. The gadolinium contrast agent was injected into the rat's tail vein during the 7th of these 60 scans.
# The image analysis for each rat included (1) determining a baseline for each voxel by calculating the mean of the first six T1w MM scans for each voxel (i.e., the scans prior to the injection of the gadolinium); (2) computing voxel by voxel, the percent signal change (i.e., gadolinium accumulation) over time relative to the baseline; (3) segmenting the brain into anterior, middle, and posterior segments; (4) generating for each of the three segments the mean percent signal change with respect to the baseline over all the voxels in the respective segment and then (5) averaging 4 consecutive time points (i.e. 4 scans) together. Finally, the data from all of the rats within any given group were averaged together.
# To test whether this increase in permeability of the BBB was temporary, the same test conditions were repeated, but followed with an additional 96 hours without alternating electric fields. After this 96 hour period, a series of 60 T1w MRI scans (each of the scans having a duration of 28 seconds) was acquired using the same procedure described above (including the gadolinium injection). The results of this portion of the DCE-MRI experiment for each of the three segments of the brain are also depicted in FIG. 8. […] From this we can conclude that the permeability of the BBB returns to normal after the alternating electric fields are discontinued.
# The relationship between the intensity of the alternating electric fields and the impact of those fields on BBB integrity and permeability was also apparent from in vivo experiments in rats using serial dynamic contrast-enhanced (DCE) MM to measure gadolinium (Gd) uptake after 100 kHz alternating electric fields were applied for 72 hours. The rat's brains were segmented into three regions (anterior, posterior, and middle), and simulations of the alternating electric fields delivery to those three regions yielded field strengths of 1.5±0.6 V/cm RMS, 2.1±1.2 V/cm RMS, and 2.7±1.7 V/cm RMS respectively. […] These findings also indicate that the cells' response to alternating electric fields depends on the intensity of the fields.
# [3] = tested on: GBM F98 cells; assay: Paclitaxel plus alternating electric fields in rat GBM, fold increase of tumor volume; conditions: 15 mg/kg PTX with 100 kHz fields, day 15, vs heat only
# Procedure: (§1) Another set of in vivo experiments was performed to determine whether paclitaxel (PTX, which is a drug that ordinarily cannot traverse the BBB) can make it across the BBB when the subject is treated with alternating electric fields. In one of these experiments, glioblastoma was induced in rats by injecting them orthotopically with GBM F98 cells on day 0 of the experiment. On day 6, a first set of MRI scans of each rat's brains was obtained. Alternating electric fields at 100 kHz were applied to all the rats on days 7 through 10. On day 10 (i.e., after applying the fields for 72 hours), some of the rats were injected i.p. with 25 mg/kg PTX, while other rats were not injected. Subsequently, on day 13 (i.e., 3 days post PTX administration), a second set of MRI scans of each rat's brain was obtained. Ki67 (red) and DAPI (blue) staining was evaluated for the test and control rats.
# A similar experiment using a 15 mg/kg dose of PTX was performed, except that instead of quantifying the Ki67/DAPI ratio on day 13, MRI scans and post mortem tissue sections were used to determine the fold increase of the tumor volume on day 15. The tumor volumes from these experiments are depicted in FIG. 11. […] And the inventors have concluded that the alternating electric fields allow the PTX (or metabolites thereof) to cross the BBB.
# [4] = tested on: GBM F98 cells; assay: Paclitaxel plus alternating electric fields in rat GBM, Ki67/DAPI cell proliferation; conditions: 25 mg/kg PTX i.p. after 72 hours 100 kHz fields; day 13; vs alternating electric fields only
# Procedure: as §1
compound,measurement,setting,value
"Cc1cc(-c2ccc(/N=N/c3ccc4c(S(=O)(=O)O)cc(S(=O)(=O)O)c(N)c4c3O)c(C)c2)ccc1/N=N/c1ccc2c(S(=O)(=O)O)cc(S(=O)(=O)O)c(N)c2c1O [EB, Evans Blue]","average EB accumulation in the rat brain, averaged over all four sections 1-4","[1]; 100 kHz fields 72 hours vs sham heat/control, p<0.05",higher accumulation of EB
same,"EB accumulation, brain sections 1, 2 (frontal cerebrum)","[1]; 100 kHz fields 72 h vs sham heat/control, EB i.v., circulating 2 hours, field strength highest",statistically significant increase
same,"EB accumulation, posterior brain sections (3, 4)","[1]; 100 kHz fields 72 h vs sham heat/control, EB i.v., circulating 2 hours, field strength lower",smaller increase (that was not statistically significant)
O=C([O-])CN(CCN(CC(=O)[O-])CC(=O)O)CCN(CC(=O)[O-])CC(=O)O.[Gd+3] [Gd-DTPA],Gd signal enhancement in the middle and posterior brain,"[2]; 100 kHz fields 72 hours, about 10 minutes after Gd injection, vs control rats",significantly increased signal enhancement
same,Gd accumulation in the anterior part of the brain,"[2]; 100 kHz fields 72 hours, lower field intensities in this region",no significant Gd accumulation
same,contrast agent accumulation in the brain tissue (DCE-MRI percent signal change),"[2]; 100 kHz fields 72 h vs control rats, anterior, middle, posterior segments",significantly higher than in the control rats
same,"contrast agent accumulation in the brain tissue, injection 96 h after the fields were turned off",[2]; listed as Gd,no significant accumulation of Gd
same,"contrast agent accumulation in the brain tissue, injection 96 h after the fields were turned off",[2]; listed as contrast agent,not significantly different from the control rats
same,Gd accumulation in control rats,[2]; rats not treated using alternating electric fields,No significant Gd accumulation
same,spatial distribution of Gd enhancement,"[2]; test rats (100 kHz fields 72 h), 20 to 23 minutes post-contrast administration",distributed in the whole brain
"CC(=O)O[C@H]1C(=O)[C@@]2(C)[C@H]([C@H](OC(=O)c3ccccc3)[C@]3(O)C[C@H](OC(=O)[C@H](O)[C@@H](NC(=O)c4ccccc4)c4ccccc4)C(C)=C1C3(C)C)[C@]1(OC(C)=O)CO[C@@H]1C[C@@H]2O [PTX, paclitaxel]",fold tumor volume increase in the GBM tumor,[3],significant decrease in the fold tumor volume increase
same,cell proliferation in the GBM tumor (Ki67/DAPI ratio),[4],significant decrease in cell proliferation
